According to ChEMBL document CHEMBL3885861, “Open TG-GATES”:

Species on record: Rattus norvegicus
Test: Open TG-GATES - Regimen: Single
Format: toxicity, organism-based, Sprague-Dawley
Design: regimen Single, gender Male, age 6 weeks
Conditions: in vivo, iv, route intravenous injection; for APTT / Bas / Eos / Fbg / Hb / Ht / Lym / MCH / MCHC / MCV / Mono / Neu / Plat / RBC / Ret / WBC / PT: tissue Blood; for KIDNEY_L / KIDNEY_R / KIDNEY_TOTAL: tissue Kidney; for LIVER: tissue Liver; for ALP / ALT / AST / CRE / Ca / DBIL / GLC / IP / K / Na / PL / RALB / TBIL / TC / TG / TP / gamma-GTP / BUN / LDH: tissue Plasma
[1] = 1 mg/kg, 9 h, dose level Middle
[2] = 1 mg/kg, 24 h, dose level Middle

CISPLATIN
TERMINAL_BW [1]: 214.2 g
APTT [1]: 23.6 s
Bas [1]: 0%
Eos [1]: 0.4%
Fbg [1]: 267.8 mg/dL
Hb [1]: 12.7 g/dL
Ht [1]: 39.1%
Lym [1]: 81.8%
MCH [1]: 20.6 pg
MCHC [1]: 32.4%
MCV [1]: 63.7 fL
Mono [1]: 2.2%
Neu [1]: 15%
Plat [1]: 132.5 x10_4/uL
RBC [1]: 613.6 x10_4/ul
Ret [1]: 6.7%
WBC [1]: 93.8 x10_2/uL
KIDNEY_L [1]: 1 g
KIDNEY_R [1]: 1 g
KIDNEY_TOTAL [1]: 2 g
LIVER [1]: 9 g
ALP [1]: 1312 IU/L
ALT [1]: 39.2 IU/L
AST [1]: 73 IU/L
CRE [1]: 0.1 mg/dL
Ca [1]: 11 mg/dL
DBIL [1]: 0 mg/dL
GLC [1]: 179.2 mg/dL
IP [1]: 9.9 mg/dL
K [1]: 4.2 meq/L
Na [1]: 139.6 meq/L
PL [1]: 120.6 mg/dL
RALB [1]: 2.9 g/dL
TBIL [1]: 0.028 mg/dL
TC [1]: 67 mg/dL
TG [1]: 51.8 mg/dL
TP [1]: 5.3 g/dL
gamma-GTP [1]: 1.4 IU/L
TERMINAL_BW [2]: 213.8 g
Bas [2]: 0%
Eos [2]: 0.8%
Fbg [2]: 329 mg/dL
MCH [2]: 21 pg
MCHC [2]: 32.9%
MCV [2]: 63.9 fL
Mono [2]: 3%
Neu [2]: 16%
PT [2]: 16 s
Plat [2]: 128.4 x10_4/uL
RBC [2]: 631.8 x10_4/ul
Ret [2]: 5.2%
WBC [2]: 100.8 x10_2/uL
KIDNEY_L [2]: 1 g
KIDNEY_R [2]: 1 g
KIDNEY_TOTAL [2]: 2.1 g
ALT [2]: 46 IU/L
BUN [2]: 15.4 mg/dL
CRE [2]: 0.2 mg/dL
DBIL [2]: 0 mg/dL
GLC [2]: 183.2 mg/dL
IP [2]: 7.7 mg/dL
K [2]: 4.4 meq/L
LDH [2]: 163.4 IU/L
PL [2]: 143.6 mg/dL
RALB [2]: 3.1 g/dL
TBIL [2]: 0.014 mg/dL
TC [2]: 78.6 mg/dL
TG [2]: 85.8 mg/dL
TP [2]: 5.7 g/dL
gamma-GTP [2]: 1.6 IU/L
TERMINAL_BW (3 mg/kg, 3 h, dose level High): 219.6 g
APTT (3 mg/kg, 3 h, dose level High): 22.3 s
Bas (3 mg/kg, 3 h, dose level High): 0%
Eos (3 mg/kg, 3 h, dose level High): 1%
Fbg (3 mg/kg, 3 h, dose level High): 271 mg/dL
Hb (3 mg/kg, 3 h, dose level High): 12.7 g/dL
Ht (3 mg/kg, 3 h, dose level High): 39%
Lym (3 mg/kg, 3 h, dose level High): 78.4%
MCV (3 mg/kg, 3 h, dose level High): 65.3 fL
Mono (3 mg/kg, 3 h, dose level High): 2.8%
PT (3 mg/kg, 3 h, dose level High): 15.9 s
Plat (3 mg/kg, 3 h, dose level High): 130.5 x10_4/uL
RBC (3 mg/kg, 3 h, dose level High): 596.8 x10_4/ul
Ret (3 mg/kg, 3 h, dose level High): 6.7%
WBC (3 mg/kg, 3 h, dose level High): 97.6 x10_2/uL
KIDNEY_L (3 mg/kg, 3 h, dose level High): 1 g
KIDNEY_R (3 mg/kg, 3 h, dose level High): 1 g
KIDNEY_TOTAL (3 mg/kg, 3 h, dose level High): 1.9 g
LIVER (3 mg/kg, 3 h, dose level High): 9.7 g
ALP (3 mg/kg, 3 h, dose level High): 1622.8 IU/L
ALT (3 mg/kg, 3 h, dose level High): 43.4 IU/L
AST (3 mg/kg, 3 h, dose level High): 80.6 IU/L
CRE (3 mg/kg, 3 h, dose level High): 0.2 mg/dL
DBIL (3 mg/kg, 3 h, dose level High): 0 mg/dL
GLC (3 mg/kg, 3 h, dose level High): 177.6 mg/dL
IP (3 mg/kg, 3 h, dose level High): 9 mg/dL
K (3 mg/kg, 3 h, dose level High): 4.2 meq/L
LDH (3 mg/kg, 3 h, dose level High): 166.2 IU/L
Na (3 mg/kg, 3 h, dose level High): 139.4 meq/L
PL (3 mg/kg, 3 h, dose level High): 115 mg/dL
RALB (3 mg/kg, 3 h, dose level High): 2.8 g/dL
TBIL (3 mg/kg, 3 h, dose level High): 0.026 mg/dL
TC (3 mg/kg, 3 h, dose level High): 64.8 mg/dL
TG (3 mg/kg, 3 h, dose level High): 63.6 mg/dL
TP (3 mg/kg, 3 h, dose level High): 5.2 g/dL
gamma-GTP (3 mg/kg, 3 h, dose level High): 1.6 IU/L
TERMINAL_BW (3 mg/kg, 6 h, dose level High): 210.6 g
APTT (3 mg/kg, 6 h, dose level High): 22 s
Bas (3 mg/kg, 6 h, dose level High): 0%
Eos (3 mg/kg, 6 h, dose level High): 0.8%
Fbg (3 mg/kg, 6 h, dose level High): 280.6 mg/dL
Hb (3 mg/kg, 6 h, dose level High): 12.9 g/dL
Ht (3 mg/kg, 6 h, dose level High): 39.8%
MCV (3 mg/kg, 6 h, dose level High): 64 fL
Mono (3 mg/kg, 6 h, dose level High): 2.8%
PT (3 mg/kg, 6 h, dose level High): 15.3 s
Plat (3 mg/kg, 6 h, dose level High): 123.5 x10_4/uL
RBC (3 mg/kg, 6 h, dose level High): 623.2 x10_4/ul
Ret (3 mg/kg, 6 h, dose level High): 6.2%
WBC (3 mg/kg, 6 h, dose level High): 89 x10_2/uL
KIDNEY_L (3 mg/kg, 6 h, dose level High): 0.9 g
KIDNEY_R (3 mg/kg, 6 h, dose level High): 0.9 g
KIDNEY_TOTAL (3 mg/kg, 6 h, dose level High): 1.9 g
LIVER (3 mg/kg, 6 h, dose level High): 9.1 g
ALP (3 mg/kg, 6 h, dose level High): 1307.8 IU/L
ALT (3 mg/kg, 6 h, dose level High): 42.6 IU/L
AST (3 mg/kg, 6 h, dose level High): 81 IU/L
CRE (3 mg/kg, 6 h, dose level High): 0.2 mg/dL
DBIL (3 mg/kg, 6 h, dose level High): 0 mg/dL
GLC (3 mg/kg, 6 h, dose level High): 177.2 mg/dL
IP (3 mg/kg, 6 h, dose level High): 9.5 mg/dL
K (3 mg/kg, 6 h, dose level High): 4.7 meq/L
Na (3 mg/kg, 6 h, dose level High): 139 meq/L
PL (3 mg/kg, 6 h, dose level High): 127.8 mg/dL
RALB (3 mg/kg, 6 h, dose level High): 2.9 g/dL
TBIL (3 mg/kg, 6 h, dose level High): 0 mg/dL
TC (3 mg/kg, 6 h, dose level High): 75 mg/dL
TG (3 mg/kg, 6 h, dose level High): 79.2 mg/dL
TP (3 mg/kg, 6 h, dose level High): 5.3 g/dL
gamma-GTP (3 mg/kg, 6 h, dose level High): 1.8 IU/L
TERMINAL_BW (3 mg/kg, 9 h, dose level High): 213.7 g
APTT (3 mg/kg, 9 h, dose level High): 22.3 s
Bas (3 mg/kg, 9 h, dose level High): 0%
Eos (3 mg/kg, 9 h, dose level High): 0.6%
Fbg (3 mg/kg, 9 h, dose level High): 287.4 mg/dL
Ht (3 mg/kg, 9 h, dose level High): 38.5%
Lym (3 mg/kg, 9 h, dose level High): 79.8%
MCHC (3 mg/kg, 9 h, dose level High): 32.7%
Mono (3 mg/kg, 9 h, dose level High): 1.8%
PT (3 mg/kg, 9 h, dose level High): 15.4 s
Plat (3 mg/kg, 9 h, dose level High): 137.7 x10_4/uL
RBC (3 mg/kg, 9 h, dose level High): 615.8 x10_4/ul
Ret (3 mg/kg, 9 h, dose level High): 5.4%
WBC (3 mg/kg, 9 h, dose level High): 60.5 x10_2/uL
KIDNEY_L (3 mg/kg, 9 h, dose level High): 1 g
KIDNEY_R (3 mg/kg, 9 h, dose level High): 1 g
KIDNEY_TOTAL (3 mg/kg, 9 h, dose level High): 1.9 g
LIVER (3 mg/kg, 9 h, dose level High): 8.6 g
ALP (3 mg/kg, 9 h, dose level High): 1222.8 IU/L
ALT (3 mg/kg, 9 h, dose level High): 37.8 IU/L
AST (3 mg/kg, 9 h, dose level High): 73 IU/L
BUN (3 mg/kg, 9 h, dose level High): 12 mg/dL
CRE (3 mg/kg, 9 h, dose level High): 0.1 mg/dL
Ca (3 mg/kg, 9 h, dose level High): 11 mg/dL
DBIL (3 mg/kg, 9 h, dose level High): 0 mg/dL
GLC (3 mg/kg, 9 h, dose level High): 178.6 mg/dL
IP (3 mg/kg, 9 h, dose level High): 9.8 mg/dL
K (3 mg/kg, 9 h, dose level High): 4.4 meq/L
LDH (3 mg/kg, 9 h, dose level High): 133.4 IU/L
Na (3 mg/kg, 9 h, dose level High): 140.2 meq/L
PL (3 mg/kg, 9 h, dose level High): 124 mg/dL
RALB (3 mg/kg, 9 h, dose level High): 3 g/dL
TBIL (3 mg/kg, 9 h, dose level High): 0.024 mg/dL
TC (3 mg/kg, 9 h, dose level High): 70.2 mg/dL
TG (3 mg/kg, 9 h, dose level High): 57 mg/dL
TP (3 mg/kg, 9 h, dose level High): 5.4 g/dL
gamma-GTP (3 mg/kg, 9 h, dose level High): 1.8 IU/L
TERMINAL_BW (3 mg/kg, 24 h, dose level High): 220 g
APTT (3 mg/kg, 24 h, dose level High): 22.6 s
Bas (3 mg/kg, 24 h, dose level High): 0%
Eos (3 mg/kg, 24 h, dose level High): 0.6%
Fbg (3 mg/kg, 24 h, dose level High): 297.2 mg/dL
Ht (3 mg/kg, 24 h, dose level High): 40.2%
Lym (3 mg/kg, 24 h, dose level High): 87%
MCH (3 mg/kg, 24 h, dose level High): 21 pg
MCHC (3 mg/kg, 24 h, dose level High): 33%
MCV (3 mg/kg, 24 h, dose level High): 63.8 fL
Mono (3 mg/kg, 24 h, dose level High): 2.8%
Neu (3 mg/kg, 24 h, dose level High): 9.4%
Plat (3 mg/kg, 24 h, dose level High): 134.6 x10_4/uL
RBC (3 mg/kg, 24 h, dose level High): 629.2 x10_4/ul
Ret (3 mg/kg, 24 h, dose level High): 3.9%
WBC (3 mg/kg, 24 h, dose level High): 73 x10_2/uL
KIDNEY_L (3 mg/kg, 24 h, dose level High): 1 g
KIDNEY_R (3 mg/kg, 24 h, dose level High): 1 g
KIDNEY_TOTAL (3 mg/kg, 24 h, dose level High): 2 g
LIVER (3 mg/kg, 24 h, dose level High): 9.6 g
ALP (3 mg/kg, 24 h, dose level High): 1429.2 IU/L
ALT (3 mg/kg, 24 h, dose level High): 39 IU/L
AST (3 mg/kg, 24 h, dose level High): 72.4 IU/L
BUN (3 mg/kg, 24 h, dose level High): 16.2 mg/dL
CRE (3 mg/kg, 24 h, dose level High): 0.2 mg/dL
DBIL (3 mg/kg, 24 h, dose level High): 0 mg/dL
GLC (3 mg/kg, 24 h, dose level High): 181 mg/dL
IP (3 mg/kg, 24 h, dose level High): 8.3 mg/dL
K (3 mg/kg, 24 h, dose level High): 4.3 meq/L
Na (3 mg/kg, 24 h, dose level High): 140 meq/L
PL (3 mg/kg, 24 h, dose level High): 147.2 mg/dL
RALB (3 mg/kg, 24 h, dose level High): 3.1 g/dL
TBIL (3 mg/kg, 24 h, dose level High): 0.024 mg/dL
TC (3 mg/kg, 24 h, dose level High): 89.2 mg/dL
TG (3 mg/kg, 24 h, dose level High): 51.8 mg/dL
TP (3 mg/kg, 24 h, dose level High): 5.5 g/dL
gamma-GTP (3 mg/kg, 24 h, dose level High): 1.8 IU/L
